These results are taken from patent US8436185B2, “Pharmaceutically acceptable salts of 2-{4-[(3S)-piperidin-3-yl]phenyl}-2H-indazole-7-carboxamide” (Merck Sharp & Dohme Corp., priority 2008, dated 2013).

The conditions of data set [1]: for Hygroscopicity (at 25° C.): in words.
In the next data set the test system is PARP. To be noted: rabbits, cited from earlier work.

For `Cc1ccc(S(=O)(=O)O)cc1.NC(=O)c1cccc2cn(-c3ccc([C@@H]4CCCNC4)cc3)nc12` [Example 1, (3S)-3-{4-[7-(Aminocarbonyl)-2H-indazol-2-yl]phenyl}piperidinium 4-methylbenzenesulfonate], in data set [1] (25° C.), the “moisture adsorbed to 95% RH” value amounted to 0.3%. Moreover, in data set [1], the “Hygroscopicity (at 25° C.)” value was “Non-hygroscopic”.
As to `Cl.NC(=O)c1cccc2cn(-c3ccc([C@@H]4CCCNC4)cc3)nc12` [Chloride salt, (3S)-3-[4-[7-(Aminocarbonyl)-2H-indazol-2-yl]phenyl]piperidinium chloride], the “moisture to 50% RH” value in data set [1] (25° C., to 50% RH) is 10%. In data set [1] (25° C.), the “moisture adsorbed to 95% RH” value is given as 60% moisture to 95% RH). Also, in data set [1], the “Hygroscopicity (at 25° C.)” value is reported as “Highly hygroscopic”.
As to `NC(=O)c1cccc(N)c1` [3-amino-benzamide], in the data set on PARP (single injection 10 mg/kg, one minute before occlusion or before reperfusion), the “reduction in infarct size in the heart” value was 32-42%.
Take `Oc1cccc2c(O)nccc12` [1,5-dihydroxyisoquinoline]: in the data set on PARP (single injection 1 mg/kg), the “reduction in infarct size” value is reported as 38-48%.
